Reference: patent US20090176817A1, “Method of Treatment of Diarrhea-Predominant Irritable Bowel Syndrome in a Subject” (priority 2005, published 2009)

Test system: diarrhea-predominant IBS subjects
Assay: Study S241.3.011: weekly diary questions on adequate relief
Format: in vivo, human
Protocol: Study S241.3.011 was a Phase III, double-blind, placebo-controlled, randomized, multinational study to investigate the safety and efficacy of 2 mg TID of cilansetron for a period of 12 weeks followed by a rerandomized, placebo-controlled four-week treatment period, in diarrhea-predominant IBS subjects. The study was conducted in six countries including the US. A total of 2115 subjects consented to participate, and 770 subjects were randomized. A total of 746 subjects were analyzed for efficacy and 755 subjects were analyzed for safety. Diagnosis and main criteria for inclusion were IBS subjects satisfying the Rome I criteria (1992); the diarrhea predominant sub-population of the Rome II criteria; and a minimum abdominal pain/discomfort, stool frequency and consistency determined during the run-in period. Subjects were treated with cilansetron 2 mg tablets given orally TID or matching placebo tablets given orally TID for 12 weeks followed by a rerandomized, placebo-controlled four-week treatment period.
The primary efficacy parameter was the number of months that a subject was a responder for IBS symptoms (abdominal pain, abdominal discomfort, abnormal bowel habits) over the 12-week treatment period. A responder for a month (monthly responder) was defined as a subject who answered the weekly question with “yes” at least twice for that month. The two main secondary efficacy parameters were the monthly responder rates based on the “adequate relief” questions regarding abdominal pain/discomfort and abnormal bowel habits during the 12-week treatment period. The overall response rate and responder rate for the weekly diary questions on adequate relief at each month and all months, the adequate relief rate, the number of subjects with adequate relief by week, daily diary questions, IBS-QOL scores, and the interruption of activities were also assessed. Safety was evaluated by physical examination, ECG, vital signs, laboratory evaluations, concomitant medications, and AEs.
Subjects who were initially randomized to the cilansetron 2 mg TID group and rerandomized to placebo, will be referred to as the C/P treatment group; subjects initially randomized to the placebo group and rerandomized to placebo will be referred to as the P/P treatment group; the P/C and C/C treatment group nomenclature follow the same principle. Of the 591 subjects who completed the three-month treatment period, 576 subjects were rerandomized and thus divided into the following treatment groups: 150 subjects in the C/C treatment group, 140 subjects in the C/P treatment group, 136 subjects in the P/C treatment group, and 150 subjects in the P/P treatment group. Of the 576 subjects rerandomized, a higher percentage of subjects in the C/C treatment group (99%) completed the study compared with the C/P (95%), P/C (93%), and the P/P (95%) treatment groups.
Studies S24 1.3.OO6, S24 1.3.0 1 1, and S24 1.3.009 used the following efficacy measurements: • The subjects answered the following three questions with “yes” or “no” using a phone diary at the end of each week: • a) During the last week, did you experience adequate relief of your IBS symptoms, such as abdominal pain, abdominal discomfort, abnormal bowel habits? • b) During the last week, did you experience adequate relief of your abdominal pain and/or discomfort? • c) During the last week, did you experience adequate relief of your abnormal bowel habits? • The subjects rated the following symptoms using the phone diary at the end of each day: • abdominal pain/discomfort (five-point scale); • stool consistency (seven-point Bristol Stool Scale); • stool frequency (number of bowel movements each day); • urgency (five-point scale); • straining (yes or no); • feeling of incomplete defecation (yes or no); • bloating or feeling of abdominal distension (five-point scale). • In Studies S241 A006 and S241.3.009, subjects completed the IBS-QOL Survey at Baseline (Day 1) and at the end of treatment. […]

[1] = 2 mg TID, monthly LOCF, ITT N = 377
[2] = 2 mg TID, three-month treatment period, monthly LOCF, ITT N = 377
[3] = 2 mg TID, three-month treatment period, observed case, ITT N = 377
[4] = Baseline BMI: <30 kg/m^2, three-month treatment period, monthly LOCF, ITT, 2 mg TID

Compound: Cc1nccn1C[C@H]1CCc2c(c3cccc4c3n2CCC4)C1=O [Cilansetron, (R)-(−)-4,5,6,8,9,10-hexahydro-10-[(2-methyl-1H-imidazol-1-yl)methyl]-11H-pyrido-[3,2,1-jk]-carbazol-11-one]
- Responders for one month, IBS symptoms (2 mg TID, 3 months): 14%
- Responders for one month, abdominal pain/discomfort (2 mg TID, 3 months): 12%
- Responders for one month, abnormal bowel habits (2 mg TID, 3 months): 13%
- Responders for three months, IBS symptoms (2 mg TID, 3 months): 39%
- Responders for three months, abdominal pain/discomfort (2 mg TID, 3 months): 42%
- Responders for three months, abnormal bowel habits (2 mg TID, 3 months): 40%
- Responders for two months, IBS symptoms (2 mg TID, 3 months): 19%
- Responders for two months, abdominal pain/discomfort (2 mg TID, 3 months): 19%
- Responders for two months, abnormal bowel habits (2 mg TID, 3 months): 18%
- Responders for zero months, IBS symptoms (2 mg TID, 3 months): 28%
- Responders for zero months, abdominal pain/discomfort (2 mg TID, 3 months): 27%
- Responders for zero months, abnormal bowel habits (2 mg TID, 3 months): 30%
- Responder rate, adequate relief of IBS symptoms, Each month of Months 1 to 3 [1]: 148 (39) n (%)
- Responder rate, adequate relief of IBS symptoms, Month 1 [1]: 216 (57) n (%)
- Responder rate, adequate relief of IBS symptoms, Month 2 [1]: 214 (57) n (%)
- Responder rate, adequate relief of IBS symptoms, Month 3 [1]: 208 (55) n (%)
- Responder rate, adequate relief of abdominal pain/discomfort, Each month of Months 1 to 3 [1]: 159 (42) n (%)
- Responder rate, adequate relief of abdominal pain/discomfort, Month 1 [1]: 217 (58) n (%)
- Responder rate, adequate relief of abdominal pain/discomfort, Month 2 [1]: 229 (61) n (%)
- Responder rate, adequate relief of abdominal pain/discomfort, Month 3 [1]: 220 (58) n (%)
- Responder rate, adequate relief of abnormal bowel habits, Each month of Months 1 to 3 [1]: 149 (40) n (%)
- Responder rate, adequate relief of abnormal bowel habits, Month 1 [1]: 214 (57) n (%)
- Responder rate, adequate relief of abnormal bowel habits, Month 2 [1]: 209 (55) n (%)
- Responder rate, adequate relief of abnormal bowel habits, Month 3 [1]: 206 (55) n (%)
- Subjects who were responders for One month, adequate relief of IBS symptoms [2]: 54 (14) n (%)
- Subjects who were responders for One month, adequate relief of abdominal pain/discomfort [2]: 45 (12) n (%)
- Subjects who were responders for One month, adequate relief of abnormal bowel habits [2]: 50 (13) n (%)
- Subjects who were responders for Three months, adequate relief of IBS symptoms [2]: 148 (39) n (%)
- Subjects who were responders for Three months, adequate relief of abdominal pain/discomfort [2]: 159 (42) n (%)
- Subjects who were responders for Three months, adequate relief of abnormal bowel habits [2]: 149 (40) n (%)
- Subjects who were responders for Two months, adequate relief of IBS symptoms [2]: 70 (19) n (%)
- Subjects who were responders for Two months, adequate relief of abdominal pain/discomfort [2]: 72 (19) n (%)
- Subjects who were responders for Two months, adequate relief of abnormal bowel habits [2]: 66 (18) n (%)
- Subjects who were responders for Zero months, adequate relief of IBS symptoms [2]: 105 (28) n (%)
- Subjects who were responders for Zero months, adequate relief of abdominal pain/discomfort [2]: 101 (27) n (%)
- Subjects who were responders for Zero months, adequate relief of abnormal bowel habits [2]: 112 (30) n (%)
- Overall responder rate, adequate relief of IBS symptoms [3]: 206 (55) n (%)
- Overall responder rate, adequate relief of abdominal pain/discomfort [3]: 221 (59) n (%)
- Overall responder rate, adequate relief of abnormal bowel habits [3]: 203 (54) n (%)
- Median adequate relief rate, IBS symptoms (3 months): 0.58
- Median adequate relief rate, abdominal pain/discomfort (3 months): 0.58
- Median adequate relief rate, abnormal bowel habits (3 months): 0.58
- Overall responder rate, IBS symptoms (3 months, observed case, ITT): 55%
- Overall responder rate, abdominal pain/discomfort (3 months, observed case, ITT): 59%
- Overall responder rate, abnormal bowel habits (3 months, observed case, ITT): 54%
- Responder rate, abdominal pain/discomfort (Argentina and Chile): 65%
- Number of months a subject was a responder: One month (Abdominal pain/discomfort) [4]: 30 (11) n (%)
- Number of months a subject was a responder: One month (Abnormal bowel habits) [4]: 33 (12) n (%)
- Number of months a subject was a responder: One month (IBS symptoms) [4]: 38 (14) n (%)
- Number of months a subject was a responder: Three months (Abdominal pain/discomfort) [4]: 113 (42) n (%)
- Number of months a subject was a responder: Three months (Abnormal bowel habits) [4]: 104 (39) n (%)
- Number of months a subject was a responder: Three months (IBS symptoms) [4]: 107 (40) n (%)
- Number of months a subject was a responder: Two months (Abdominal pain/discomfort) [4]: 50 (19) n (%)
- Number of months a subject was a responder: Two months (Abnormal bowel habits) [4]: 51 (19) n (%)
- Number of months a subject was a responder: Two months (IBS symptoms) [4]: 48 (18) n (%)
- Number of months a subject was a responder: Zero months (Abdominal pain/discomfort) [4]: 73 (27) n (%)
- Number of months a subject was a responder: Zero months (Abnormal bowel habits) [4]: 78 (29) n (%)
